The record followed here is patent US6806281B2 (Georgetown University, priority 1997, dated 2004).

For orientation: IC50 means the concentration at which inhibition is half-maximal. What is called melting point is the temperature, or range, at which the solid turns liquid.

The target in series [1] is T1, dopamine transporter (Rattus norvegicus, UniProt P23977). The experiment in a line: biochemical. As to conditions: IC50 (nM) [3H]dopamine uptake, rat striatal synaptosomes.
The target in series [2] is T1, dopamine transporter. Kind of series: biochemical. To be noted: IC50 (nM) [3H]WIN 35,428 binding, rat striatal membranes.
The next series can be described thus: Locomotor activity. The class given is in vivo, Sprague-Dawley rats. As for the experimental part: The locomotor effects of compound 2 were evaluated using male Swiss Webster mice according to previously published procedures: Izenwasser, S., Terry, P., Heller, B., Witkin, J. M., and Katz, J. L. (1994) Differential relationships among dopamine transporter affinities and stimulant potencies of various uptake inhibitors. Eur. J. Pharmacol., 263, 277-283.
Thus the small behavioral responses to the piperidine analog appear to last longer than that of cocaine.

Series [3] can be described thus: Drug discrimination, amphetamine substitution tests. Format: in vivo, rats. To be noted: for response rates: across all test doses.
Series [4] in a line: Drug discrimination, cocaine substitution and co-administration tests. Format: in vivo, rats.
Series [5] is described as follows: Intravenous drug self-administration. Format: in vivo, rats. As to conditions: for self-administration responding: i.v., FR10, cocaine 1 mg/kg/infusion, analog 2 0.3-3 mg/kg/infusion, analog 3 0.125-0.5 mg/kg infusion, vs saline extinction. An excerpt:
J. Neurosci., 16, 7416-7427.
Rats were initially trained to lever press for food pellets in standard operant boxes. Following lever press training, rats were implanted with polyvinyl chloride catheters into femoral veins under halothane anesthesia (2-3% in medical grade oxygen) and were allowed to recover for an additional 7 days before initiation of i.v. drug self-administration testing. During drug self-administration sessions, food pellets were no longer delivered, and instead intravenous injections of drugs were delivered by way of the catheter.
Following this second extinction test, self-administration of piperidine analog 2 was studied at doses of 1, 3, and 0.3 mg/kg/infusion in that order. Each dose was tested for five days. During all the re-acquisition test days, a priming infusion was given at the start of the session on each day.

The subject of series [6] is striatal dopamine transporter. The experiment in a line: PET evaluation of 11C-labeled isomers. To be noted: for specific binding to striatal dopamine transporter sites: in vivo PET. On the procedure:
The products were purified by HPLC on a C-18 cartridge eluted with MeOH:phosphate/triethylamine buffer, pH 7.2 (60:40).
After passage through a 0.22 μm filter, the sterile products were administered to three Rhesus monkeys and dynamic PET images were acquired over 90 minutes.

Series [7] addresses T1, dopamine transporter. As to conditions: relative to cocaine.
Series [8] addresses T1, dopamine transporter. To be noted: relative to cocaine. The source holds these as a separate data set.

T1 sequence (P23977 whole entry): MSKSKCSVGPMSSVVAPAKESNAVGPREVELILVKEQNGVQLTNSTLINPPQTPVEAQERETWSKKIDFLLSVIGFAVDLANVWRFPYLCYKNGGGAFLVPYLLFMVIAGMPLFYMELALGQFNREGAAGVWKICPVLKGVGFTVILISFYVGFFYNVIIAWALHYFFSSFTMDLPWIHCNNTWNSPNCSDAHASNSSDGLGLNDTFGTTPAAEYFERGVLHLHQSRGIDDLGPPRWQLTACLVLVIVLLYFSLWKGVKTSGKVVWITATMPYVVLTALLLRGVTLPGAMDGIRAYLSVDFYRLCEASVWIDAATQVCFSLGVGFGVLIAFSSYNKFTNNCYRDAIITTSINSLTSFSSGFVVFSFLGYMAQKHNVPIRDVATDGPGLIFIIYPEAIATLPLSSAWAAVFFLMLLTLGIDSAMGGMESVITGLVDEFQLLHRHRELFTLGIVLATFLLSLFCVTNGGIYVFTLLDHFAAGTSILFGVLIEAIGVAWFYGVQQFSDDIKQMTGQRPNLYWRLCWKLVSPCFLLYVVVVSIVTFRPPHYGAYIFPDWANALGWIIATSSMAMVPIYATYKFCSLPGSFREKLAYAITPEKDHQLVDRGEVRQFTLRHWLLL

For `CN1CCC(c2ccc(Cl)cc2)C(CO)C1` (single isomer, unassigned; (-)) [(−)-5, (−)-4β-(4-Chlorophenyl)-3β-(hydroxymethyl)-1-methylpiperidine], at dopamine transporter [1], the IC50 was determined as 49 ± 3 nM.
Turning to `COC(=O)C1CN(C)CCC1c1ccc(Cl)cc1` (single isomer, unassigned; (+)) [(+)-11, (+)-Methyl 4β-(4-chlorophenyl)-1-methylpiperidine-3α-carboxylate], the IC50 at dopamine transporter [2] came to 57.3 ± 8.1 nM; against dopamine transporter [1], 34.6 ± 3.2 nM.
Compound `COC(=O)[C@@H]1CN(C)CC[C@@H]1c1ccc(Cl)cc1` (racemic) [Compound (±)-1, (±)-cis-Methyl 4-(4-Chlorophenyl)-1-methylpiperidine-3-carboxylate] returned a melting point of 98 to 99 °C.
Regarding `COC(=O)C1CN(C)CCC1c1ccc(Cl)cc1` (racemic) [(±)-2, (±)-cis-Methyl 4-(4-Chlorophenyl)-1-methylpiperidine-3-carboxylate], the “time-course of stereotypic response” value in the series “Locomotor activity” (90 minutes following the drug injection) is “persistent at 90 minutes”. In addition, the convulsions result in “Locomotor activity” (doses higher than 20 mg/kg i.p.) was “produce convulsions”. Besides, in “Locomotor activity” (i.p., cocaine 10 mg/kg, analog 2 3-20 mg/kg, compared to saline control), the distance traveled result is recorded as “did not alter the distance traveled”. Also, the “stereotypic behavior / stereotypic time” value in the series “Locomotor activity” (i.p., cocaine 10 mg/kg, analog 2 10 and 20 mg/kg, compared to saline control) was “small, statistically nonsignificant increase in stereotypic time”. The response rates result in [3] is recorded as “remained fairly stable”. In series [4] (analog 2 10 mg/kg plus cocaine 1.25 and 5 mg/kg), the “effect of co-administration on drug choice and response rate of cocaine” value is “did not significantly alter drug choice”. In addition, in [4] (analog 2 5 and 10 mg/kg), the “response rates compared with cocaine (10 mg/kg)” value was “substantially lower”. Further, the maximum cocaine-lever responding in series [4] (analog 2 5 and 20 mg/kg) is listed as 40%. In addition, in [5] (analog 2, all doses tested (0.3-3 mg/kg/infusion), vs saline extinction test), the “number of infusions delivered” value is recorded as “not significantly different from that of the saline extinction test”. Further, the self-administration responding entry in series [5] is on record as “failed to restore the self-administration responding”.
With `COC(=O)C1CN(C)CCC1c1ccc(Cl)cc1` (single isomer, unassigned; (-)) [(−)-3, (−)-Methyl 4β-(4-chlorophenyl)-1-methylpiperidine-3β-carboxylate], in [5], the self-administration responding result is on record as “rats reliably self-administered this compound”. Besides, the IC50 at dopamine transporter [2] is 24.8 ± 1.6 nM; against dopamine transporter [1], 85.2 ± 2.6 nM.
Regarding `COC(=O)C1CN(C)CCC1c1ccc(Cl)cc1` (single isomer, unassigned; isomer 4) [trans isomer, 4-(4-chlorophenyl)-3-carbomethoxy-N-methylpiperidine], the “specific binding to striatal dopamine transporter sites” value in series [6] was “high levels of specific binding”. Also, in [6] (unlabeled CFT administered 60 minutes after injection), the “striatal activity after unlabeled CFT” value was “selective decrease in the striatal activity”.
As to `CCCC1CN(C)CCC1c1ccc(Cl)cc1` (single isomer, unassigned; (+)) [(+)-15, (+) 4β-(4-chlorophenyl)-1-methyl-3α-n-propylpiperidine], the figures for the half-inhibitory concentration (IC50) on dopamine transporter [2] and against dopamine transporter [1] were 17.2 ± 0.5 nM and 23.2 ± 2.2 nM, respectively.
With `CCCC1CN(C)CCC1c1ccc(Cl)cc1` (single isomer, unassigned; (-)) [(−)-9, (−) 4β-(4-chlorophenyl)-1-methyl-3β-n-propylpiperidine], the “fold more potent than cocaine in binding affinity” value at dopamine transporter [7] was determined as 33 fold. Further, the “fold more potent than cocaine in inhibition of dopamine uptake” value on dopamine transporter [8] was determined as 29 fold. Also, the results for the IC50 on dopamine transporter [2] and against dopamine transporter [1] were 3 nM and 8.3 ± 0.6 nM, respectively.
With `CC(N)Cc1ccccc1` (centres unmarked) [amphetamine], the response rates result in series [3] is given as “remained fairly stable”. For the same compound, the “substitution for the discriminative stimulus effects of amphetamine” value in series [3] (substitution tests) was “dose-dependent and complete substitution”.
Regarding `COC(=O)C1CN(C)CCC1c1ccc(Cl)cc1` (single isomer, unassigned; isomer 4) [cis isomer, 4-(4-chlorophenyl)-3-carbomethoxy-N-methylpiperidine], in series [6] (11C-labeled, PET images over 90 minutes), the “accumulation in brain regions (dynamic PET)” value was “greater nonspecific accumulation in the cortex”. Besides, in series [6], the “specific binding to striatal dopamine transporter sites” value was “high levels of specific binding”.
`CC(=O)OCC1CN(C)CCC1c1ccc(Cl)cc1` (single isomer, unassigned; (-)) [(−)-7, (−)-3β-(Acetoxymnethyl)-4β-(4-chlorophenyl)-1-methylpiperidine] displayed a melting point of 76 °C. The compound also registered an IC50 at dopamine transporter [2] of 44.7 ± 10.5 nM. The same compound had an IC50 against dopamine transporter [1] of 62.9 ± 2.7 nM.
